From US20140271734A1, “BILE ACID RECYCLING INHIBITORS FOR TREATMENT OF BARRETT'S ESOPHAGUS AND GASTROESOPHAGEAL REFLUX DISEASE” (LUMENA PHARMACEUTICALS, INC., priority 2013, published 2014)

Columns and labels:
bile acids in the feces = experiment: Fecal bile acid excretion in ZDF rats after oral 264W94; format: in vivo, Zucker diabetic fatty rats (ZDF/GmiCrl-fa/fa)
Experimental: (§1) Male Zucker diabetic fatty rats (ZDF/GmiCrl-fa/fa) were purchased from Charles River (Raleigh, N.C.) and housed under controlled conditions (12:12 light-dark cycle, 24° C. and 50% relative humidity) with free access to rodent food (Purina 5008, Harlan Teklad, Indianapolis, Ind.). All rats arrived at seven weeks of age (±3 days). After a one-week acclimation period, rats were anesthetized with isoflurane (Abbott Laboratories, IL) and tail-vein blood samples were collected at 9 am without fasting. Blood glucose levels were measured using a glucometer (Bayer, Leverkusen, Germany). In order to ensure balanced treatment groups, ZDF rats were assigned to six treatment groups based upon baseline glucose: vehicle (0.5% HPMC, 0.1% Tween80) and five doses of 264W94 (0.001, 0.01, 0.1, 1, 10 mg/kg). All treatments were given via oral gavage twice a day and animals were followed for two weeks with blood samples collected from tail vein at the end of each week at 9 am without fasting. Fecal samples were collected for 24 hours during the second week of treatment.
(§2) Non-esterified fatty acids (NEFA), bile acids, and bile acids in fecal extraction were measured using the Olympus AU640 clinical chemistry analyzer (Beckman Coulter, Irving, Tex.).

plasma bile acid = experiment: Plasma bile acid concentrations in ZDF rats; format: in vivo
Experimental: as §1, §2
Male ZDF rats (n=4) were administered vehicle, SC-435 (1, 10 or 30 mg/kg) or LUM002 (0.3, 1, 3, 10 or 30 mg/kg) by oral gavage twice a day for 2 weeks. Plasma bile acid levels were determined at the end of the second week. […] Data are expressed as mean values±SEM.

total serum bile acids = experiment: Plasma total serum bile acids in ZDF rats, week 3; format: in vivo; conditions: twice daily oral gavage
[1] = test system: Alanine Aminotransferase (ALAT); experiment: Plasma alanine aminotransferase in ZDF rats, week 3; format: in vivo; conditions: twice daily oral gavage
plasma triglycerides = experiment: Plasma triglycerides in ZDF rats, week 3; format: in vivo; conditions: twice daily oral gavage, no dose-related response
Hemoglobin A1c (HbA1c) = experiment: Baseline-corrected percent HbA1c in ZDF rats; format: in vivo; conditions: twice daily oral gavage
GLP-2 = GLP-2 in plasma of non-fasted ZDF rats, 2 weeks treatment; format: in vivo
plasma lipase = experiment: Plasma lipase in ZDF rats, week 3; format: in vivo; conditions: twice daily oral gavage
plasma amylase = experiment: Plasma amylase in ZDF rats, week 3; format: in vivo; conditions: twice daily oral gavage
[2] = test system: Alkaline Phosphatase (ALP); conditions: twice daily oral gavage; Week 3
Experimental: This study was conducted to determine the effects of two non-absorbed ASBTi compounds in the ZDF rat model after 3 weeks of treatment.
Animals were acclimatized for 5-7 days after arrival. […] The 2nd set of study was initiated after completion of the 1st. Test compound formulation prepared every other day and stored at 4° C. […] After 3rd week of treatment blood samples were collected by cardiac puncture from fasted animals for blood chemistry analysis: ALAT, ASAT, GGT, Alkaline Phosphatase and total Bile Acids. Tests were performed in contract clinical laboratory (Liver Profile SA320, Antech Diagnostics, Orange Country, Calif.).
Blood was collected by tail vein bleed weekly and after 3 weeks of treatment by cardiopuncture for serum tests. Data for each group is presented as the Mean Value±SEM. Statistically evaluation by t-test: *P<0.05, **P<0.01,***P<0.001 vs. vehicle group.

[3] = 264W94 0.001-10 mg/kg oral gavage twice a day, 2 weeks

| SMILES | Bile acids in the feces (bile acids in the feces; [3]) | Fecal bile acid concentrations elevated vs vehicle treated rats (bile acids in the feces; 264W94 0.001-10 mg/kg oral gavage twice a day, 24 h feces in second week) | Fecal NEFA (bile acids in the feces; 264W94 oral gavage twice a day, 2 weeks) | ED50 (fecal bile acid elevation) (bile acids in the feces; oral gavage twice a day, 2 weeks) [mg/kg] | Plasma bile acid concentrations (plasma bile acid; [3]) | Plasma bile acid levels (plasma bile acid; SC-435 1, 10 or 30 mg/kg, LUM002 0.3, 1, 3, 10 or 30 mg/kg, oral gavage twice a day, end of second week, n=4) | Plasma total serum bile acids (SBA) (total serum bile acids) | Plasma alanine aminotransferase (ALAT) [1] | Fasting plasma triglycerides (plasma triglycerides) | Baseline-corrected percent HbA1c (Hemoglobin A1c (HbA1c)) | GLP-2 in plasma (GLP-2) | Plasma lipase (plasma lipase) | Plasma amylase (plasma amylase) | Plasma alkaline phosphatase (ALP) [2] |
| --- | --- | --- | --- | --- | --- | --- | --- | --- | --- | --- | --- | --- | --- | --- |
| CCCC[C@]1(CC)CS(=O)(=O)c2cc(OC)c(OC)cc2[C@@H](c2ccccc2)N1 [Compound 264W94] | dose-dependently increased | up to 6.5 fold | slightly increased | 0.17 | decreased dose-dependently |  |  |  |  |  |  |  |  |  |
| CCCCC1(CCCC)CS(=O)(=O)c2ccc(N(C)C)cc2[C@@H](c2ccc(OCCCC[N+]34CCN(CC3)CC4)cc2)[C@H]1O.CS(=O)(=O)[O-] [SC-435, 1-[4-[4-[(4R,5R)-3,3-dibutyl-7-(dimethylamino)-2,3,4,5-tetrahydro-4-hydroxy-1,1-dioxido-1-benzothiepin-5-yl]phenoxy]butyl]4-aza-1-azoniabicyclo[2.2.2]octane methanesulfonate salt, reference compound] |  |  |  |  |  | decreased for all doses | statistically significant reductions in SBA | Neither LUM002 nor SC-435 caused statistically significant reductions | statistically significant elevations | significant dose-dependent reductions | significant elevations in GLP2 at higher doses | statistically significant reductions in plasma lipase at higher doses | Neither LUM002 nor SC-435 caused a statistically significant changes | significant reductions in ALP |
